Results published in PubChem BioAssay (NCI).
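The compound was tested at five concentrations on cells cultured in 96-well plates, with a 48-hour exposure period. The concentration for 50% growth inhibition is given as GI50. TGI denotes the concentration required for complete inhibition of growth.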

How the values were obtained:
Test in all cases: NCI anticancer screen, dose series, 48 h
[1] = test system: LOX IMVI melanoma
[2] = test system: UACC-62 melanoma
[3] = test system: KM20L2 colon
[4] = test system: SK-MEL-28 melanoma
[5] = test system: NCI-H522 lung
[6] = test system: EKVX NSCLC
[7] = test system: NCI-H226 lung
[8] = test system: LXFL 529 NSCLC
[9] = test system: MALME-3M melanoma
[10] = test system: COLO 205 colon
[11] = test system: RXF 393 renal
[12] = test system: HL-60(TB) leukemia
[13] = test system: HOP-18 NSCLC
[14] = test system: SNB-78 CNS
[15] = test system: A549 NSCLC
[16] = test system: OVCAR-8 ovarian
[17] = test system: SF-539 CNS
[18] = test system: SW-620 colon
[19] = test system: TK-10 renal
[20] = test system: M14 melanoma
[21] = test system: IGROV1 ovarian
[22] = test system: CCRF-CEM leukemia
[23] = test system: HT29 colon
[24] = test system: SNB-75 CNS
[25] = test system: UACC-257 melanoma
[26] = test system: OVCAR-5 ovarian
[27] = test system: HCC-2998 colon
[28] = test system: CAKI-1 renal
[29] = test system: NCI-H23 lung
[30] = test system: ACHN renal
[31] = test system: K-562 leukemia
[32] = test system: SN12C renal
[33] = test system: OVCAR-3 ovarian
[34] = test system: SF-295 CNS
[35] = test system: SK-MEL-2 melanoma
[36] = test system: U251 CNS
[37] = test system: MOLT-4 leukemia
[38] = test system: RPMI-8226 leukemia
[39] = test system: HCT-116 colon
[40] = test system: KM12 colon
[41] = test system: OVCAR-4 ovarian
[42] = test system: HOP-92 NSCLC
[43] = test system: 786-0 renal
[44] = test system: SF-268 CNS
[45] = test system: SR leukemia
[46] = test system: SNB-19 CNS
[47] = test system: A498 renal
[48] = test system: NCI-H460 lung
[49] = test system: SK-MEL-5 melanoma
[50] = test system: HCT-15 colon
[51] = test system: UO-31 renal
[52] = test system: SK-OV-3 ovarian
[53] = test system: DLD-1 colon
[54] = test system: HOP-62 NSCLC
[55] = test system: DMS 273 small cell lung

N.N.NCCCCN.O=C([O-])CC(=O)[O-].O=C([O-])CC(=O)[O-].[Pt+4].[Pt+4]
GI50 [1]: 78.3 µM | TGI [1]: > 100 µM | GI50 [2]: 77.4 µM | TGI [2]: > 100 µM | GI50 [3]: > 100 µM | TGI [3]: > 100 µM | GI50 [4]: > 100 µM | TGI [4]: > 100 µM | GI50 [5]: 18.2 µM | TGI [5]: 62.5 µM | GI50 [6]: > 100 µM | TGI [6]: > 100 µM | GI50 [7]: > 100 µM | TGI [7]: > 100 µM | GI50 [8]: > 100 µM | TGI [8]: > 100 µM | GI50 [9]: > 100 µM | TGI [9]: > 100 µM | GI50 [10]: > 100 µM | TGI [10]: > 100 µM | GI50 [11]: > 100 µM | TGI [11]: > 100 µM | GI50 [12]: 11.5 µM | TGI [12]: > 100 µM | GI50 [13]: > 100 µM | TGI [13]: > 100 µM | GI50 [14]: > 100 µM | TGI [14]: > 100 µM | GI50 [15]: > 100 µM | TGI [15]: > 100 µM | GI50 [16]: > 100 µM | TGI [16]: > 100 µM | GI50 [17]: 76.4 µM | TGI [17]: > 100 µM | GI50 [18]: > 100 µM | TGI [18]: > 100 µM | GI50 [19]: > 100 µM | TGI [19]: > 100 µM | GI50 [20]: > 100 µM | TGI [20]: > 100 µM | GI50 [21]: > 100 µM | TGI [21]: > 100 µM | GI50 [22]: 35.6 µM | TGI [22]: > 100 µM | GI50 [23]: > 100 µM | TGI [23]: > 100 µM | GI50 [24]: > 100 µM | TGI [24]: > 100 µM | GI50 [25]: > 100 µM | TGI [25]: > 100 µM | GI50 [26]: > 100 µM | TGI [26]: > 100 µM | GI50 [27]: 97.3 µM | TGI [27]: > 100 µM | GI50 [28]: 79 µM | TGI [28]: > 100 µM | GI50 [29]: 89.1 µM | TGI [29]: > 100 µM | GI50 [30]: 26.9 µM | TGI [30]: > 100 µM | GI50 [31]: > 100 µM | TGI [31]: > 100 µM | GI50 [32]: 58.5 µM | TGI [32]: > 100 µM | GI50 [33]: > 100 µM | TGI [33]: > 100 µM | GI50 [34]: > 100 µM | TGI [34]: > 100 µM | GI50 [35]: > 100 µM | TGI [35]: > 100 µM | GI50 [36]: 48.5 µM | TGI [36]: > 100 µM | GI50 [37]: 52.8 µM | TGI [37]: > 100 µM | GI50 [38]: > 100 µM | TGI [38]: > 100 µM | GI50 [39]: > 100 µM | TGI [39]: > 100 µM | GI50 [40]: > 100 µM | TGI [40]: > 100 µM | GI50 [41]: > 100 µM | TGI [41]: > 100 µM | GI50 [42]: > 100 µM | TGI [42]: > 100 µM | GI50 [43]: 57.3 µM | TGI [43]: > 100 µM | GI50 [44]: > 100 µM | TGI [44]: > 100 µM | GI50 [45]: 30.4 µM | TGI [45]: > 100 µM | GI50 [46]: > 100 µM | TGI [46]: > 100 µM | GI50 [47]: > 100 µM | TGI [47]: > 100 µM | GI50 [48]: 9.62 µM | TGI [48]: > 100 µM | GI50 [49]: > 100 µM | TGI [49]: > 100 µM | GI50 [50]: > 100 µM | TGI [50]: > 100 µM | GI50 [51]: 59.4 µM | TGI [51]: > 100 µM | GI50 [52]: > 100 µM | TGI [52]: > 100 µM | GI50 [53]: > 100 µM | TGI [53]: > 100 µM | GI50 [54]: > 100 µM | TGI [54]: > 100 µM | GI50 [55]: 89.2 µM | TGI [55]: > 100 µM
